# “And” between values parts separate entries of the source, which are not always exact repeats. Equal entries are not always repeated. Where two headings read alike, the source gives them in different places. Marks after values point to notes of the source that are not given here.
# Legend:
# [1] = tested on: AC-MES-induced tonic seizures in CF-1 mice; assay: Mouse AC-MES assay (60 Hz, 40 mA, 0.2 s); assay type: in vivo; details: for EC50: Compound A PO 0.5 h alone
# Description: The efficacy of Compound A and its pharmacological interaction with Lacosamide was evaluated after oral dosing in the mouse maximal electroshock seizure (AC-MES) assay.
# The objective of these studies was to characterize the dose-dependent anticonvulsant activity of Compound A and its pharmacological interaction with Lacosamide in the AC-MES assay in mice after a single oral administration of the compounds. The AC-MES assay is typically responsive to non-selective sodium channel blockers and potassium channel openers, and has been used as a translational animal model for partial onset seizures.
# The anticonvulsant efficacy of Compound A and Lacosamide, and the effect of combining Compound A with Lacosamide were tested in the AC-MES assay in male CF-1 mice following a single PO dose. Plasma and brain samples were obtained to understand the relationship between drug concentration and efficacy.
# AC-MES Assay: The MES test has been extensively used in the search for anticonvulsant substances (Piredda et al., Löscher et al., and White et al.). The MES test is considered a model for generalized tonic-clonic (GTC) seizures and provides an indication of a compound's ability to prevent seizure spread. In the AC-MES model, an electroshock of alternating current (60 Hz, 40 mA) was delivered for 0.2 seconds by corneal electrodes (HSE-HA Rodent Shocker, Harvard Apparatus, model no: 73-0105). CF-1 mice were dosed PO (according to Standard Operating Procedure (SOP) TECH-006) with vehicle or Compound A 0.5 hours before the electroshock assay Immediately prior to the electroshock stimulation, the animals' eyes were anesthetized with a topical application of 0.5% Alcaine solution (proparacaine hydrochloride, one drop per eye). Mice were then restrained, the corneal electrodes applied, and the shock administered. In naïve animals, the seizure is characterized by an initial generalized tonic seizure with hindlimb tonic extensor component. An animal is considered protected from MES-induced seizures upon abolition of the hindlimb tonic extensor component of the seizure and is then scored “0”. […] Mice were euthanized immediately after an initial seizure score assessment following the electroshock for plasma and brain collection.
# Data Processing and Analysis: All statistics were calculated using GraphPad Prism version 8 software. Concentration response curves were generated using the Hill Langmuir equation:
# Y=B+(T−B)×x^n/(IC50^n+x^n), Equation 1
# where: • B=bottom, set as 0. • T=top, set as 1. • n=the Hill coefficient, constrained to less than zero. • IC50=concentration of a compound required for 50% inhibition in vitro.
# All group data is expressed as mean. Between-group differences were analyzed using Kruskal-Wallis followed by Dunn's multiple comparison test.
# Plasma and brain samples were obtained to understand the relationship between drug concentration and efficacy.
# The Blinding and Randomization, Clinical Observations, AC-MES Assay, Sample Collection and Preparation, Plasma and Brain Samples Analysis, and Bioanalysis Procedures in Example 4 were identical to those used in Example 2.
# Sample concentration determination and Data Processing and Analysis in Example 4 was identical to Example 2.
# [2] = tested on: 6 Hz psychomotor seizures in CF-1 mice; assay: Mouse 6 Hz psychomotor seizure assay (34 milliampere, 3 s); assay type: in vivo
# Description: It was evaluated whether the combination of both compounds is favorable or unfavorable for efficacy by dosing Compound A and Levetiracetam alone and in combination, each at a dose that produces sub-maximal efficacy on its own. […] Plasma and brain samples were analyzed to gain an understanding of how the combination of Compound A and Levetiracetam may affect pharmacokinetics and pharmacodynamics. […] 6 Hz Psychomotor Seizure Assay: […] The animal was then securely restrained and a pair of electrodes was applied to the eyes (Electro Convulsive Therapy Unit 57800, Ugo Basile). […] Data Processing and Analysis: Statistical data analysis was performed using GraphPad Prism (version 8.2.1). Dose-response data was analyzed using a Kruskal-Wallis test, followed by Dunn's multiple comparisons. […] Dose- and concentration-response curves were generated using the Hill Langmuir equation: […]
# [3] = dosed in combination with Cenobamate vs alone
smiles,measurement,setting,value
"NC(=O)O[C@@H](Cn1ncnn1)c1ccccc1Cl [Cenobamate, reference compound]",fraction of animals seizing,"[1]; Cenobamate 7.5 mg/kg PO, 2 h, alone",3/7
same,fraction of animals seizing,"[1]; Cenobamate 10 mg/kg PO, 2 h, alone",1/8
same,fraction of animals seizing,"[1]; Cenobamate 30 mg/kg PO, 2 h, alone",0/8
same,fraction of animals seizing,"[1]; Cenobamate lower doses of 3 and 5 mg/kg PO, 2 h, alone",7/8
same,Fraction Seizing,"[1]; Study 4D, Cenobamate 3 mg/kg single oral dose, 2 h pre-treatment, vehicle 8/8",8/8
same,Fraction Seizing,"[1]; Study 4D, Cenobamate 10 mg/kg single oral dose, 2 h pre-treatment, vehicle 8/8",1/8
same,Fraction Seizing,"[1]; Study 4D, Cenobamate 30 mg/kg single oral dose, vehicle 8/8",0/8
same,Fraction Seizing,"[1]; Study 4E, Cenobamate 3 mg/kg single oral dose, 2 h pre-treatment, vehicle 8/8",6/7
same,Fraction Seizing,"[1]; Study 4E, Cenobamate 5 mg/kg single oral dose, 2 h pre-treatment, vehicle 8/8",6/7
same,Fraction Seizing,"[1]; Study 4E, Cenobamate 7.5 mg/kg single oral dose, 2 h pre-treatment, vehicle 8/8",3/8
same,fraction of animals seizing,"[1]; Study 4F, Cenobamate 5 mg/kg PO, 2 h, alone",8/8
same,Fraction Seizing,"[1]; Study 4F, Cenobamate 5 mg/kg PO alone, 2 h pre-treatment, vehicle 8/8",8/8
"Cc1cc(N2CCc3cc(F)ccc3C2)cc(C)c1NC(=O)CC(C)(C)C [Compound A, N-[4-(6-fluoro-3,4-dihydro-1H-isoquinolin-2-yl)-2,6-dimethylphenyl]-3,3-dimethylbutanamide]",ED20,"[2]; Compound A PO 1 h, Study 3A dose response curve",4 mg/kg and 4.13 mg/kg
same,ED50,"[2]; Mus musculus, Compound A PO 1 h, Study 3A dose response curve",6.48 mg/kg
same,EC50,"[2]; Mus musculus, Compound A PO 1 h, Study 3A, read-out: brain EC50",540 nM
same,EC50,"[2]; Mus musculus, Compound A PO 1 h, Study 3A, read-out: plasma EC50",350 nM
same,Fraction Seizing,"[2]; Studies 3B+3C combined, Compound A 4 mg/kg PO 1 h alone",13/14*
same,Fraction Seizing,"[2]; Study 3A, Compound A 1 mg/kg PO, 1 h",8/8
same,Fraction Seizing,"[2]; Study 3A, Compound A 3 mg/kg PO, 1 h",8/8
same,Fraction Seizing,"[2]; Study 3A, Compound A 5 mg/kg PO, 1 h",5/8
same,Fraction Seizing,"[2]; Study 3A, Compound A 8 mg/kg PO, 1 h",3/8
same,Fraction Seizing,"[2]; Study 3B, Compound A 4 mg/kg PO 1 h alone",8/8
same,Fraction Seizing,"[2]; Study 3C, Compound A 4 mg/kg PO 1 h alone",5/6*
same,animals protected from seizing,"[2]; Study 3C, Compound A 4 mg/kg PO alone",1/7
same,EC50,"[1]; composite of Studies 4A, 4B, 4C, 4F, read-out: EC50 for plasma",296 nM
same,EC50,"[1]; Mus musculus, po, 0.5 h, composite of Studies 2A, 2B, 2C, read-out: EC50 for brain tissue",471 nM
same,EC50,"[1]; Mus musculus, po, 0.5 h, composite of Studies 2A, 2B, 2C, read-out: EC50 for plasma",300 nM
same,EC50,"[1]; Mus musculus, po, 0.5 h, composite of Studies 4A, 4B, 4C, 4F, read-out: EC50 for brain tissue",470 nM
same,EC50,"[1]; Mus musculus, po, 0.5 h, composite of Studies 4A, 4B, 4C, 4F, read-out: EC50 for plasma",300 nM
same,Fraction Seizing,"[1]; Study 2A, Compound A 1 mg/kg PO, 0.5 h",8/8
same,Fraction Seizing,"[1]; Study 2A, Compound A 5 mg/kg PO, 0.5 h",7/8
same,Fraction Seizing,"[1]; Study 2A, Compound A 10 mg/kg PO, 0.5 h",3/8
same,Fraction Seizing,"[1]; Study 2B, Compound A 5 mg/kg PO, 0.5 h",0/8
same,Fraction Seizing,"[1]; Study 2B, Compound A 7.5 mg/kg PO, 0.5 h",0/7
same,Fraction Seizing,"[1]; Study 2B, Compound A 10 mg/kg PO, 0.5 h",1/9
same,Fraction Seizing,"[1]; Study 2C, Compound A 3 mg/kg PO, 0.5 h, alone",2/8
same,fraction of animals seizing,"[1]; Study 4A, Compound A 1 mg/kg PO, 0.5 h",8/8
same,fraction of animals seizing,"[1]; Study 4A, Compound A 5 mg/kg PO, 0.5 h",7/8
same,fraction of animals seizing,"[1]; Study 4A, Compound A 10 mg/kg PO, 0.5 h",3/8
same,Fraction Seizing,"[1]; Study 4A, Compound A 1 mg/kg single oral dose, 30 min pre-treatment, vehicle 8/8",8/8
same,Fraction Seizing,"[1]; Study 4A, Compound A 5 mg/kg single oral dose, 30 min pre-treatment, vehicle 8/8",7/8
same,Fraction Seizing,"[1]; Study 4A, Compound A 10 mg/kg single oral dose, 30 min pre-treatment, vehicle 8/8",3/8
same,fraction of animals seizing,"[1]; Study 4B, Compound A 5 mg/kg PO, 0.5 h",0/8
same,fraction of animals seizing,"[1]; Study 4B, Compound A 10 mg/kg PO, 0.5 h",1/9
same,Fraction Seizing,"[1]; Study 4B, Compound A 5 mg/kg single oral dose, vehicle 8/8",0/8
same,Fraction Seizing,"[1]; Study 4B, Compound A 7.5 mg/kg single oral dose, vehicle 8/8",0/7
same,Fraction Seizing,"[1]; Study 4B, Compound A 10 mg/kg single oral dose, vehicle 8/8",1/9
same,fraction of animals seizing,"[1]; Study 4C, Compound A 3 mg/kg PO, 0.5 h",2/8
same,Fraction Seizing,"[1]; Study 4C, Compound A 3 mg/kg single oral dose, vehicle 8/8",2/8
same,fraction of animals seizing,"[1]; Study 4F, Compound A 2 mg/kg PO, 0.5 h, alone",5/8
same,Fraction Seizing,"[1]; Study 4F, Compound A 2 mg/kg PO alone, 0.5 h pre-treatment, vehicle 8/8",5/8
same,"increase in the potency of Compound A, brain tissue",[1]; [3],14.2 fold
same,"increase in the potency of Compound A, plasma",[1]; [3],33.3 fold
"COC[C@@H](NC(C)=O)C(=O)NCc1ccccc1 [Lacosamide, reference compound]",Fraction Seizing,"[1]; Study 2A, Lacosamide 6 mg/kg PO, 2 h",8/8
same,Fraction Seizing,"[1]; Study 2A, Lacosamide 8 mg/kg PO, 2 h",8/8
same,Fraction Seizing,"[1]; Study 2B, Lacosamide 10 mg/kg PO, 2 h",8/8
same,Fraction Seizing,"[1]; Study 2C, Lacosamide 10 mg/kg PO, 2 h, alone",6/8
same,Fraction Seizing,"[1]; Study 2D, Lacosamide 6 mg/kg PO, 2 h",8/8
same,Fraction Seizing,"[1]; Study 2D, Lacosamide 20 mg/kg PO, 2 h",3/8
